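Tested at 5 concentrations; 48 h exposure; 96-well plates; endpoints linearly interpolated, else capped at highest concentration. GI50 = concentration required for 50% inhibition of growth. Definition used: TGI = concentration required for complete inhibition of growth.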

Consider ten compounds from PubChem BioAssay (NCI).

Test systems include CCRF-CEM leukemia; UACC-257 melanoma; RPMI-8226 leukemia; SK-MEL-5 melanoma; SK-MEL-28 melanoma; UO-31 renal; SF-268 CNS; SF-539 CNS; SW-620 colon; HOP-92 NSCLC.
Holding throughout (experiment): NCI tumour cell line growth inhibition, 48 h

As for `CCN(CC)c1ccc(/C=N/NC(=O)CSc2nc3ccccc3c(=O)n2Cc2ccc(S(N)(=O)=O)cc2)c(O)c1`, the GI50 with CCRF-CEM leukemia is 0.196 µM; in the assay on UACC-257 melanoma, 3.03 µM; in the assay with RPMI-8226 leukemia it was 0.521 µM; in the assay on SK-MEL-5 melanoma, 1.57 µM; with SK-MEL-28 melanoma, 1.62 µM; in the assay with UO-31 renal, 2.89 µM. The GI50 in the assay on SF-268 CNS is 0.766 µM; with SF-539 CNS, 1.26 µM; with SW-620 colon it was 0.949 µM. The TGI with CCRF-CEM leukemia was more than 100 µM; in the assay with UACC-257 melanoma, more than 100 µM; in the assay with RPMI-8226 leukemia, 4.85 µM; in the assay with SK-MEL-5 melanoma, 4.97 µM; in the assay on SK-MEL-28 melanoma, more than 100 µM; in the assay with UO-31 renal, more than 100 µM. Besides, the TGI with SF-268 CNS, in the assay on SF-539 CNS and with SW-620 colon was more than 100 µM in each case.
In the case of `CCN(CC)c1ccc2nc3ccc(N=Nc4ccc(O)cc4)cc3[n+](-c3ccccc3)c2c1`, the GI50 was 3.11 µM with UACC-257 melanoma; more than 100 µM with HOP-92 NSCLC; 3.85 µM with RPMI-8226 leukemia; 2.92 µM with SK-MEL-5 melanoma; 5.88 µM in the assay with SK-MEL-28 melanoma; 5 µM in the assay on SF-268 CNS. The figures for the GI50 in the assay with SF-539 CNS and in the assay with SW-620 colon were 13.3 µM and 2.24 µM, respectively. In addition, the TGI was 9.78 µM in the assay with UACC-257 melanoma; more than 100 µM with HOP-92 NSCLC; more than 100 µM with RPMI-8226 leukemia; 12.2 µM with SK-MEL-5 melanoma; 21.5 µM in the assay with SK-MEL-28 melanoma; more than 100 µM with SF-268 CNS. For the same compound, the TGI came to 91.2 µM in the assay on SF-539 CNS and 6.38 µM with SW-620 colon.
Regarding `CC1=C(C#N)C(/C=C(\Cl)c2ccc(F)cc2)C(C#N)=C(C)N1`, the GI50 in the assay with CCRF-CEM leukemia was more than 100 µM; in the assay with UACC-257 melanoma, more than 100 µM; with RPMI-8226 leukemia it was 36.3 µM; in the assay with SK-MEL-5 melanoma, more than 100 µM; in the assay with SK-MEL-28 melanoma it was more than 100 µM; in the assay with UO-31 renal, more than 100 µM. Also, the GI50 with SF-268 CNS, in the assay with SF-539 CNS and with SW-620 colon was more than 100 µM throughout. In addition, the TGI in the assay on CCRF-CEM leukemia, in the assay with UACC-257 melanoma, with RPMI-8226 leukemia, with SK-MEL-5 melanoma, in the assay on SK-MEL-28 melanoma and in the assay on UO-31 renal was more than 100 µM each time. Further, the TGI in the assay with SF-268 CNS, in the assay with SF-539 CNS and in the assay on SW-620 colon was more than 100 µM each time.
With `Cc1cn2c(/C=N/N=C(N)N)c(-c3ccncc3)nc2s1`, the GI50 is 7.16 µM with CCRF-CEM leukemia; 19.5 µM in the assay on UACC-257 melanoma; 13.4 µM with HOP-92 NSCLC; 19.8 µM in the assay on SK-MEL-5 melanoma; 18.9 µM in the assay on UO-31 renal; 16.7 µM in the assay on SF-268 CNS. Besides, the GI50 in the assay with SW-620 colon is 18.9 µM. In addition, the TGI in the assay on CCRF-CEM leukemia was 22.4 µM; with UACC-257 melanoma it was 38.5 µM; with HOP-92 NSCLC it was 26.9 µM; in the assay on SK-MEL-5 melanoma, 34.6 µM; with UO-31 renal, 43.7 µM; with SF-268 CNS, 30.7 µM. The compound also returned a TGI in the assay on SW-620 colon of 33.8 µM.
With `COc1cc(-c2nccc3cc4c(cc23)OCO4)cc(OC)c1OC`, the GI50 in the assay on UACC-257 melanoma is more than 100 µM; with HOP-92 NSCLC it was 11.5 µM; with RPMI-8226 leukemia, 4.98 µM; in the assay with SK-MEL-5 melanoma, 3.16 µM; in the assay with SK-MEL-28 melanoma it was 16.6 µM; with UO-31 renal it was 6.99 µM. In addition, the GI50 is 5.56 µM in the assay on SF-268 CNS, 3.31 µM in the assay on SF-539 CNS and 2.77 µM with SW-620 colon. For the same compound, the TGI with UACC-257 melanoma, in the assay with HOP-92 NSCLC, with RPMI-8226 leukemia, with SK-MEL-5 melanoma, in the assay on SK-MEL-28 melanoma and in the assay with UO-31 renal was more than 100 µM each time. Moreover, the TGI is more than 100 µM in the assay with SF-268 CNS, 44.1 µM in the assay on SF-539 CNS and more than 100 µM with SW-620 colon.
As to `COc1cc(NC(C)CCCNC(C)C)c2ncccc2c1OC` (centres undefined), the GI50 is more than 100 µM with UACC-257 melanoma; more than 100 µM with SK-MEL-5 melanoma; more than 100 µM with SK-MEL-28 melanoma; 5.29 µM in the assay with UO-31 renal; more than 100 µM in the assay on SF-268 CNS; more than 100 µM with SF-539 CNS. Moreover, the GI50 with SW-620 colon was 97.1 µM. Besides, the TGI with UACC-257 melanoma, with SK-MEL-5 melanoma, in the assay on SK-MEL-28 melanoma, with UO-31 renal, in the assay on SF-268 CNS and with SF-539 CNS was more than 100 µM throughout. The compound also returned a TGI in the assay with SW-620 colon of more than 100 µM.
As for `Cc1cc2c(cc1CO)N1Cc3cc(C)c(CO)cc3N(C2)C1`, the TGI in the assay with CCRF-CEM leukemia, with RPMI-8226 leukemia, with SK-MEL-5 melanoma, in the assay with SK-MEL-28 melanoma, in the assay on SF-268 CNS and in the assay with SF-539 CNS was more than 100 µM in each case. Also, in the assay with SW-620 colon, the TGI is more than 100 µM.
`C=Cc1c(C)c2cc3[nH]c(cc4nc(cc5nc(cc1[nH]2)C(C)=C5CCC(=O)N(CC)CC)C(CCC(=O)N(CC)CC)=C4C)c(C)c3C=C`: the TGI in the assay with CCRF-CEM leukemia, in the assay with UACC-257 melanoma, with HOP-92 NSCLC, in the assay with SK-MEL-5 melanoma, with SK-MEL-28 melanoma and in the assay with UO-31 renal was more than 100 µM in each case. Further, the TGI in the assay on SF-539 CNS and in the assay on SW-620 colon was more than 100 µM each time.
As for `O=c1c2cccnc2ncn1CCCN1CCCC1`, the TGI in the assay with CCRF-CEM leukemia, in the assay with HOP-92 NSCLC, with SK-MEL-5 melanoma, with UO-31 renal, in the assay with SF-268 CNS and with SF-539 CNS was more than 100 µM in each case. Further, in the assay with SW-620 colon, the TGI is more than 100 µM.
With `COc1ccc(-c2nc(N)c(C#N)c3c2CCOc2c-3ccc3ccccc23)cc1`, the GI50 was more than 100 µM in the assay with CCRF-CEM leukemia; 13.7 µM with UACC-257 melanoma; 11.8 µM in the assay on HOP-92 NSCLC; 12.1 µM with SK-MEL-28 melanoma; 49.9 µM with UO-31 renal; 11.1 µM in the assay with SF-268 CNS. For the same compound, the GI50 with SF-539 CNS was 21.2 µM. In addition, the TGI in the assay on CCRF-CEM leukemia was more than 100 µM; in the assay on UACC-257 melanoma, 37.8 µM; in the assay with HOP-92 NSCLC, 37.9 µM; in the assay with SK-MEL-28 melanoma, 79.1 µM; with UO-31 renal it was more than 100 µM; with SF-268 CNS, 39.8 µM. In the assay with SF-539 CNS, this compound gave a TGI of 52.6 µM.
